Patent publication US11459341B1, “Organic anion lithium ionic cocrystal compounds and compositions” (UNIVERSITY OF SOUTH FLORIDA, priority 2013, dated 2022)

Tested on: BV2 microglia cells
Test: NO (nitrite) production by LPS-activated BV2 microglia, Griess Reagent System
Format: cell-based
Settings: treated 1 hour before 100 ng/ml LPS, nitrite in media 24 hours later
Description: BV2 microglia cells were treated with LIC (LiCl), LSC (Lithium saccharinate), LSCBTN and LSCSAR at 12.5 and 25 mM in DMEM for 1 hour prior to activation of microglia by 100 ng/ml LPS. Nitrite (NO^2−), a stable breakdown product of NO, was measured in the media 24 hours later using a Griess Reagent System (Promega).

[Cl-].[Li+] [LIC, LiCl]
inhibition of NO production by LPS-activated BV2 microglia (25 mM): only partially effective

O=C1[N-]S(=O)(=O)c2ccccc21.[Li+] [LSC, Lithium saccharinate]
attenuation of NO production by LPS-activated BV2 microglia, comparison between lithium forms (12.5 and 25 mM (both/all concentrations tested)): outperformed LIC
